Reference: the supplement of paper PMC3974653
Structures can show the parent of a compound that is named as a salt.

These compounds were tested on MTT (mouse pheochromocytoma) (assay: IC50 of cell viability (ATP content)). Conditions: (24 or 48 h).
Method in brief: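 The IC50 was fitted with a four-parameter logistic equation to normalised CellTiter-Glo ATP luminescence from MTT mouse pheochromocytoma cells. These cells, in white 1536-well plates, had been treated for 24 or 48 hrs with library compounds at 8 final concentrations between 0.5 nM and 46 µM, and luminescence was read after 15 minutes. Positive-control wells served as 100% and DMSO wells as 0%.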

| SMILES | IC50 of cell viability |
| --- | --- |
| OC[C@@H]1O[C@@](CO)(OC2O[C@H](CO)[C@@H](O)[C@H](O)[C@@H]2O)[C@@H](O)[C@@H]1O (stereo not given in full) [Sucralox] | > 46 µM |
| O=S(=O)([O-])OCC1OC(OC2(COS(=O)(=O)[O-])OC(COS(=O)(=O)[O-])C(OS(=O)(=O)[O-])C2OS(=O)(=O)[O-])C(OS(=O)(=O)[O-])C(OS(=O)(=O)[O-])C1OS(=O)(=O)[O-] (stereo not given) [Sucrose Octasulfate, Sodium Salt] | > 46 µM |
| CN1C(=S)CN=C(c2ccccc2)c2cc(Cl)ccc21 [Sulazepam] | > 46 µM |
| CC1(C)C(C(=O)[O-])N2C(=O)CC2[S+]1(=O)[O-] (stereo not given) [Sulbactam] | > 46 µM |
| S=C1SCN(Cc2ccccc2)CN1Cc1ccccc1 [Sulbentina] | > 46 µM |
| CCOC(=O)c1ccc(NC(=O)CN2CCCCC2)cc1 [Sulcaine] | > 46 µM |
| Clc1ccc(CS[C@@H](Cn2ccnc2)c2ccc(Cl)cc2Cl)cc1 [Sulconazole nitrate] | > 46 µM |
| Nc1ccc([S+](=O)([O-])Nc2ccccc2)cc1 [Sulfabenz] | > 46 µM |
| Nc1ccc([S+](=O)([O-])NC(=O)c2ccccc2)cc1 [Sulfabenzamide] | > 46 µM |
| CC(=O)N[S+](=O)([O-])c1ccc(N)cc1 [Sulfacetamide] | > 46 µM |
| Nc1ccc([S+](=O)([O-])Nc2ccc(Cl)nn2)cc1 [Sulfachloropyridazine] | > 46 µM |
| Nc1ccc([S+](=O)([O-])Nc2ncccn2)cc1 [Sulfadiazine] | > 46 µM |
| COc1cc(N[S+](=O)([O-])c2ccc(N)cc2)nc(OC)n1 [Sulfadimethoxine] | > 46 µM |
| COc1ncnc(N[S+](=O)([O-])c2ccc(N)cc2)c1OC [Sulfadoxine] | > 46 µM |
| CCc1nnc(N[S+](=O)([O-])c2ccc(N)cc2)s1 [Sulfaethidole] | > 46 µM |
| CCOc1ccc(N[S+](=O)([O-])c2ccc(N)cc2)nn1 [Sulfaethoxypyridazine] | > 46 µM |
| NC(N)=N[S+](=O)([O-])c1ccc(N)cc1 [Sulfaguanidine] | > 46 µM |
| COc1nccnc1N[S+](=O)([O-])c1ccc(N)cc1 [Sulfalene] | > 46 µM |
| Cc1ccnc(N[S+](=O)([O-])c2ccc(N)cc2)n1 [Sulfamerazine] | > 46 µM |
| COc1cnc(N[S+](=O)([O-])c2ccc(N)cc2)nc1 [Sulfameter] | > 46 µM |
| Cc1cc(C)nc(N[S+](=O)([O-])c2ccc(N)cc2)n1 [Sulfamethazine] | > 46 µM |
| Cc1nnc(N[S+](=O)([O-])c2ccc(N)cc2)s1 [Sulfamethizole] | > 46 µM |
| Cc1cc(N[S+](=O)([O-])c2ccc(N)cc2)no1 [Sulfamethoxazole] | > 46 µM |
| COc1ccc(N[S+](=O)([O-])c2ccc(N)cc2)nn1 [Sulfamethoxypyridazine] | > 46 µM |

| SMILES | IC50 of cell viability |
| --- | --- |
| COc1cc(N[S+](=O)([O-])c2ccc(N)cc2)ncn1 [Sulfamonomethoxine] | > 46 µM |
| Nc1ccc([S+](N)(=O)[O-])cc1 [Sulfanilamide] | > 46 µM |
| Nc1ccc([S+](=O)([O-])Nc2ccnn2-c2ccccc2)cc1 [Sulfaphenazole] | > 46 µM |
| Nc1ccc([S+](=O)([O-])Nc2ccccn2)cc1 [Sulfapyridine] | > 46 µM |
| Nc1ccc([S+](=O)([O-])Nc2nccs2)cc1 [Sulfathiazole] | > 46 µM |
| O=C1C(CC[S+]([O-])c2ccccc2)C(=O)N(c2ccccc2)N1c1ccccc1 (stereo not given) [Sulfinpyrazone] | > 46 µM |
| Cc1cc(NS(=O)(=O)c2ccc(N)cc2)nc(C)n1 [Sulfisomidine] | > 46 µM |
| Cc1noc(N[S+](=O)([O-])c2ccc(N)cc2)c1C [Sulfisoxazole diolamine] | > 46 µM |
| Cc1noc(N[S+](=O)([O-])c2ccc(N)cc2)c1C [Sulfisoxazole] | > 46 µM |
| CSc1ccc(/C=C2/C(C)=C(CC(=O)O)c3cc(F)ccc32)cc1 [Sulindac sulfide] | > 46 µM |
| CC1=C(CC(=O)O)c2cc(F)ccc2/C1=C\c1ccc([S+](C)(=O)[O-])cc1 [Sulindac sulfone] | > 46 µM |
| CC1=C(CC(=O)O)c2cc(F)ccc2/C1=C\c1ccc([S+](C)[O-])cc1 (stereo not given) [Sulindac] | > 46 µM |
| COc1cc(O)c(C(=O)c2ccccc2)cc1[S+](=O)([O-])O [Sulisobenzone] | > 46 µM |
| CS(=O)(=O)NC(=O)CCC/C=C\C[C@H]1C(=O)C[C@@H](O)[C@@H]1/C=C/[C@@H](O)COc1ccccc1 [Sulprostone] | > 46 µM |
| CC1(C)S[C@@H]2[C@H](NC(=O)[C@H](N)c3ccccc3)C(=O)N2[C@@H]1C(=O)OCOC(=O)[C@@H]1N2C(=O)C[C@@H]2S([O-])([O-])C1(C)C [Sultamicillin tosylate] | > 46 µM |
| CCN1CCCC1CNC(=O)c1cc([S+](=O)([O-])CC)ccc1OC (stereo not given) [Sultopride Hydrochloride] | > 46 µM |
| CCN1CCC[C@@H]1CNC(=O)c1cc([S+](=O)([O-])CC)ccc1OC [Sultopride Hydrochloride] | > 46 µM |
| CCN(CC)CCNC(=O)c1c(C)[nH]c(/C=C2\C(=O)Nc3ccc(F)cc32)c1C [Sunitinib malate] | > 46 µM |
| C[C@@H](C(=O)O)c1ccc(C(=O)c2cccs2)cc1 [Suprofen] | > 46 µM |
| CCCCC1(COC(=O)CCC(=O)O)C(=O)N(c2ccccc2)N(c2ccccc2)C1=O [Suxibuzone] | > 46 µM |
| O=c1n(Cl)c(=O)n(Cl)c(=O)n1Cl [Symclosene] | > 46 µM |
| CCOC(=O)Oc1c(OC)cc(C(=O)O[C@@H]2C[C@H]3CN4CCc5c([nH]c6cc(OC)ccc56)[C@@H]4C[C@@H]3[C@@H](C(=O)OC)[C@H]2OC)cc1OC [Syrosingopine] | > 46 µM |
| C[S+](=O)([O-])Nc1cc2occ(NC=O)c(=O)c2cc1Oc1ccccc1 [T 614] | > 46 µM |
| Nc1c2c(nc3ccccc13)CCCC2 [TACRINE] | > 46 µM |

| SMILES | IC50 of cell viability |
| --- | --- |
| CN1CC(=O)N2C(Cc3c([nH]c4ccccc34)[C@H]2c2ccc3c(c2)OCO3)C1=O (stereo not given in full) [TADALAFIL] | > 46 µM |
| CC(C)(C)NCC(O)COc1ccc(NC(=O)NC2CCCCC2)cc1 (stereo not given) [TALINOLOLUM] | > 46 µM |
| O=C1OC(OC(=O)c2cccnc2Nc2cccc(C(F)(F)F)c2)c2ccccc21 (stereo not given) [TALNIFLUMATUM] | > 46 µM |
| CN1C(=O)C[C@@H](C(=O)N[C@@H](Cc2c[nH]cn2)C(=O)N2CCC[C@H]2C(N)=O)NC1=O [TALTIRELIN HYDRATE] | > 46 µM |
| CC1(C)CCC(C)(C)c2cc(NC(=O)c3ccc(C(=O)O)cc3)ccc21 [TAMIBAROTENE] | > 46 µM |
| CCOc1ccccc1OCCN[C@H](C)Cc1ccc(OC)c([S+](N)(=O)[O-])c1 [TAMSULOSIN HYDROCHLORIDE] | > 46 µM |
| NCC[S+](=O)([O-])O [TAURINE] | > 46 µM |
| CCOC(=O)c1ccc(C#Cc2ccc3c(c2)C(C)(C)CCS3)nc1 [TAZAROTENE] | > 46 µM |
| O=c1[nH]c(=O)n(C2CCCO2)cc1F (stereo not given) [TEGAFUR] | > 46 µM |
| CCCCCNC(=N)N/N=C/c1c[nH]c2ccc(OC)cc12 [TEGASEROD] | > 46 µM |
| Cc1cn([C@H]2C[C@H](O)[C@@H](CO)O2)c(=O)[nH]c1=O [TELBIVUDINUM] | > 46 µM |
| Cc1scc2c1N(C(=O)CN1CCN(C)CC1)c1ccccc1NC2=O [TELENZEPINE] | > 46 µM |
| CCCc1nc2c(C)cc(-c3nc4ccccc4n3C)cc2n1Cc1ccc(-c2ccccc2C(=O)O)cc1 [TELMISARTAN] | > 46 µM |
| COP(=S)(OC)Oc1ccc(Sc2ccc(OP(=S)(OC)OC)cc2)cc1 [TEMEFOSUM] | > 46 µM |
| CCOC(=O)C(CCc1ccccc1)NC1CSC(c2cccs2)CN(CC(=O)O)C1=O (stereo not given) [TEMOCAPRIL HYDROCHLORIDE] | > 46 µM |
| Cn1nnc2c(C(N)=O)ncn2c1=O [TEMOZOLOMIDE] | > 46 µM |
| CO[C@H]1C[C@@H]2CC[C@@H](C)[C@@](O)(O2)C(=O)C(=O)N2CCCC[C@H]2C(=O)O[C@H]([C@H](C)C[C@@H]2CC[C@@H](OC(=O)C(C)(CO)CO)[C@H](OC)C2)CC(=O)[C@H](C)C=C(C)[C@@H](O)[C@@H](OC)C(=O)[C@H](C)C[C@H](C)/C=C/C=C/C=C1C [TEMSIROLIMUS] | > 46 µM |
| COc1ccc2[nH]c([S+]([O-])Cc3ncc(C)c(OC)c3C)nc2n1 (stereo not given) [TENATOPRAZOLE] | > 46 µM |
| NC(=O)n1c(O)c(C(=O)c2cccs2)c2cc(Cl)ccc21 [TENIDAPUM] | > 46 µM |
| c1csc(C2(N3CCCCC3)CCCCC2)c1 [TENOCYCLIDINUM] | > 46 µM |
| CC(=O)CC/C=C(\C)CC/C=C(/C)CC/C=C(\C)CCC=C(C)C [TEPRENONE] | > 46 µM |
| CC(C)(C)c1ccc(C(O)CCCN2CCC(C(O)(c3ccccc3)c3ccccc3)CC2)cc1 (stereo not given) [TERFENADINE] | > 46 µM |
